Publication PMC12598616, “Design and optimization of caspase-1-responsive fluorescent probes for pyroptosis imaging and anti-pyroptosis drug screening” (Chemical Science, 2025)

Target: T1, caspase-1 (Homo sapiens, UniProt P29466)
T1 sequence (P29466 120-297 limits assumed): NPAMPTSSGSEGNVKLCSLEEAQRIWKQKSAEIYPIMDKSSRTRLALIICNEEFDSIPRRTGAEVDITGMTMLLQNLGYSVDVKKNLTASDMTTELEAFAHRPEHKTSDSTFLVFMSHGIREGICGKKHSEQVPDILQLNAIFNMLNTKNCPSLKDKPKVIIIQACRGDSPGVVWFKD
T1 sequence (P29466 317-404 limits assumed): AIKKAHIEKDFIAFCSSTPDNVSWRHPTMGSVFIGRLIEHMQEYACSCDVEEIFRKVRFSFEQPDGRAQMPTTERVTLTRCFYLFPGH
Assay: Sensitivity of probes for caspase-1 (fluorescence at 585 nm)
Format: biochemical
Settings: for linear fitting range of Cas-1 concentration: fluorescence intensity at 585 nm vs Cas-1 concentration; for enhancement of fluorescence intensity at 585 nm: Cas-1 0–3 U/mL, assay buffer 50 mM HEPES, 50 mM NaCl, 0.1% chaps, 5% glycerol, 10 mM DTT, 10 mM EDTA, λex 510 nm
Method: The spectral and chemical properties of all probes were then evaluated. Upon interaction with Cas-1, the specific peptide of the probes is cleaved, leading to the disruption of the FRET process in the system and the recovery of donor fluorescence (Fig. 2a). Prior to fluorescence detection, the UV-vis absorption spectra of the probes were acquired. […] Subsequently, the sensitivity of the probes towards Cas-1 was measured in HEPES buffer (50 mM HEPES, 50 mM NaCl, 0.1% chaps, 5% glycerol, 10 mM DTT, 10 mM EDTA). […] The response differences among the probes were more intuitively observed by analyzing the standard curves of fluorescence intensity at 585 nm against the concentration of Cas-1 (Fig. 2b). […] The reaction kinetics of the probes were also measured by monitoring the fluorescence intensity of FPy1, YPy1 and WPy1 (0.5–4 μM) following incubation with Cas-1 (2 U mL^−1) (Fig. S3a–f). […] The reaction time of the probes was also investigated by monitoring the fluorescence spectra of the probes (5 μM) incubated with Cas-1 (2 U mL^−1) at various time intervals (Fig. S4a–c). […] Finally, the selectivity of the probes was evaluated. A series of potential biologically relevant interferents were selected, and the results illustrated that these interferents had no effect on the probes (Fig. S5a–c). Further selectivity validation was performed through incubating with caspase-3 (1 μg mL^−1), caspase-4 (2 U mL^−1), caspase-8 (1 μg mL^−1) from the caspase protease family. […] Therefore, FPy1 appeared to be the prime candidate for Cas-1 imaging applications. […]
Cell culture plates were sourced from Wuxi NEST Biotechnology. Recombinant human caspase-1, caspase-3, caspase-4, and caspase-8 were obtained from Abcam and MCE (Shanghai, China). Anti-cleaved caspase-1 antibody, anti-GAPDH antibody, and goat anti-Rabbit/anti-mouse lgG/HRP were purchased from CST (USA) and Beyotime […]
(Shanghai, China). […]
Medical College (ethical approval number ZJCLA-IACUC-20011003).
(also on this page, place not known: Wang,*f, Wang*abg Supplementary Information (SI) for Chemical Science. This journal is © The Royal Society of Chemistry 2025)
(1 picture or pasted object on this page, not shown here) […]
mixture was stirred for 3 h. DCM was removed under vacuum, and the residue was purified by silica gel column chromatography (DCM/MeOH, 180/1) to afford WPy1 as a dark purple solid (21 mg, 6 % yield). HRMS (ESI+): calcd […]
Analysis of probe purity by LC-MSD
Prepare dilute solutions of FPy1, YPy1 and WPy1 using chromatographic-grade acetonitrile and transfer them to sample vials. Begin with an initial mobile phase consisting of 20% acetonitrile (0.05 % formic acid) and 80% H2O (0.05 % formic acid). Over the course of 30 minutes, implement a gradient change to a mobile phase of 90% acetonitrile (0.05 % formic acid) and 10% H2O (0.05 % FA). Under the elution conditions, LC-MSD was performed on the above probe solutions and blank solvent acetonitrile.
Sensitivity of probes for caspase-1
To investigate the sensitivity of the probes for caspase-1, varying concentration of caspase-1 (0, 0.2, 0.4, 0.6, 0.8, 1.0, 1.25, 1.5, 1.75, 2, 2.5, 3 U/mL) were incubated with FPy1 (5 μM), YPy1 (5 μM) and WPy1 (5 μM) respectively in caspase-1 assay buffer (50 mM HEPES, 50 mM NaCl, 0.1 % chaps, 5 % glycerol, 10 mM DTT, 10 mM EDTA) at 37 °C for 2 hours. Fluorescence spectra were recorded using Hitachi F-2700 spectrophotometer with an excitation at 510 nm (Photomultiplier voltage 700 V; Slit widths ex: 10 nm and em =5.0 nm). The fluorescence intensity of FPy1, YPy1 and WPy1 at 585 nm were plotted against the concentration of caspase-1, and a linear regression fitted from the corresponding concentration of caspase-1, and linear regression was applied to determine the slope k. The limit of detection (LoD) was calculated from 3σ/k, in which σ represents the standard deviation of 15 blank measurements.
Various concentrations of FPy1, YPy1 and WPy1 (0.5, 1, 2, 4 μM) in 100 μL enzyme assay buffer (50 mM HEPES, 50 […]

Substance	limit of detection (Cas-1, 3σ/k, σ from 15 blank measurements, probe 5 μM, 37 °C, 2 h, estimated)	fluorescence intensity at 585 nm at the same Cas-1 concentration (before maximum, compared to YPy1, probe 5 μM)	catalytic efficiency of Cas-1 for the probe (compared with YPy1, inferred from intensity at same Cas-1 concentration)	linear fitting range of Cas-1 concentration (probe 5 μM, 37 °C, 2 h)	enhancement of fluorescence intensity at 585 nm (probe 5 μM, 37 °C, 2 h)
–FLTDG– [FPy1, RhoB donor, hNR quencher]	3.7 U L^−1	stronger fluorescence intensity at 585 nm compared to YPy1	higher catalytic efficiency for FPy1 than YPy1	0–1 U mL^−1	approximately 20.2 fold
–YVADG– [YPy1, caspase-1-responsive FRET probe with recognition peptide –YVADG–; RhoB donor, hNR quencher]				0–2 U mL^−1	~19.2 fold
